pIC50: −log10 of the molar value.

Drawing on BindingDB's records for doi:10.1016/0960-894X(96)00456-8 (1996), this text covers IC50 for two compounds.

This experiment can be described thus: Compound was evaluated for inhibitory activity against herpes simplex type 2 protease (HSV-2 pr).

A word on the pIC50: it is the IC50 on a negative log10 scale, so that one unit is a factor of ten. Low values mean a high IC50, high ones a low IC50. `O=C1OC(c2ccccc2)=N[C@@]12C[C@@H]2c1ccccc1` [(1R,3R)-1,5-Diphenyl-6-oxa-4-aza-spiro[2.4]hept-4-en-7-one] showed a pIC50 of 6.15. The value for `CC(=O)Oc1ccc([C@H]2C[C@@]23N=C(c2ccccc2)OC3=O)cc1` [Acetic acid 4-((1R,3R)-7-oxo-5-phenyl-6-oxa-4-aza-spiro[2.4]hept-4-en-1-yl)-phenyl ester] was 5.92.
